Patent publication US6114371A, “3-(cyclohexanoheteroarylidenyl)-2-indolinone protein tyrosine kinase inhibitors” (Sugen, Inc., priority 1998, dated 2000)

Key:
[1] = target: T1, FLK-1 receptor (Mus musculus, UniProt P35918); test: FLK-1 ELISA (kinase activity of the FLK-1 receptor in engineered cells); type: cell-based; settings: Table 3; VEGF-stimulated NIH3T3 C7#3 cells; read-out: FLK-1 IC50
T1 construct: expressed in transfected cells; host or cells: NIH3T3 C7#3 cells

[2] = system: HUV-EC-C cells; test: HUV-EC-C assay, aFGF (3H-thymidine incorporation); type: cell-based, human; settings: Homo sapiens, Table 9; aFGF (ECGF)-stimulated HUV-EC-C, 3H-thymidine; read-out: aFGF IC50
Description: The following protocol may also be used to measure a compound's activity against PDGF-R, FGF-R, VEGF, aFGF or Flk-1/KDR, all of which are naturally expressed by HUV-EC cells.
1. […] After cells have detached from the flask, add an equal volume of assay medium and transfer to a 50 mL sterile centrifuge tube (Fisher Scientific; catalogue no. 05-539-6).
1. Make up two-fold drug titrations in separate 96-well plates, generally 50 μM on down to 0 μM. Use the same assay medium as mentioned in day 0, step 2 above. Titrations are made by adding 90 μl/well of drug at 200 μM (4×the final well concentration) to the top well of a particular plate column. Since the stock drug concentration is usually 20 mM in DMSO, the 200 μM drug concentration contains 2% DMSO.
Therefore, diluent made up to 2% DMSO in assay medium (F12K+0.5% fetal bovine serum) is used as diluent for the drug titrations in order to dilute the drug but keep the DMSO concentration constant. Add this diluent to the remaining wells in the column at 60 μl/well. Take 60 μl from the 120 μl of 200 μM drug dilution in the top well of the column and mix with the 60 μl in the second well of the column. Take 60 μl from this well and mix with the 60 μl in the third well of the column, and so on until two-fold titrations are completed. When the next-to-the-last well is mixed, take 60 μl of the 120 μl in this well and discard it. Leave the last well with 60 μl of DMSO/media diluent as a non-drug-containing control. Make 9 columns of titrated drug, enough for triplicate wells each for 1) VEGF (obtained from Pepro Tech Inc., catalogue no. 100-200, 2) endothelial cell growth factor (ECGF) (also known as acidic fibroblast growth factor, or aFGF) (obtained from Boehringer Mannheim Biochemica, catalogue no. 1439 600); or, 3) human PDGF B/B (1276-956, Boehringer Mannheim, Germany) and assay media control. ECGF comes as a preparation with sodium heparin.
2. Transfer 50 μl/well of the drug dilutions to the 96-well assay plates containing the 0.8-1.0×10^4 cells/100 μl/well of the HUV-EC-C cells from day 0 and incubate ~2 h at 37° C., 5% CO2.
3. In triplicate, add 50 μl/well of […] VEGF, 20 ng/mL ECGF, or media control to each drug condition. As with the drugs, the growth factor concentrations are 4×the desired final concentration. Use the assay media from day 0 step 2 to make the concentrations of growth factors. Incubate approximately 24 hours at 37° C., 5% CO2. Each well will have 50 μl drug dilution, 50 μl growth factor or media, and 100 ul cells, =200 ul/well total. Thus the 4×concentrations of drugs and growth factors become 1× once everything has been added to the wells.
1. Add ^3 H-thymidine (Amersham; catalogue no. TRK-686) at 1 μCi/well (10 μl/well of 100 μCi/mL solution made up in RPMI media+10% heat-inactivated fetal bovine serum) and incubate ~24 h at 37° C., 5% CO2. RPMI is obtained from Gibco BRL, catalogue no. 11875-051.
1. Thaw plates and harvest with a 96-well plate harvester (Tomtec Harvester 96®) onto filter mats (Wallac; catalogue no. 1205-401); read counts on a Wallac Betaplate™ liquid scintillation counter.
(§1) The IC50 values were measured for several of the compounds of the invention.

[3] = target: T2, PDGFr (Homo sapiens, UniProt P09619); test: PDGF-induced BrdU incorporation assay; type: cell-based; design: expressed in transfected cells; host or cells: 3T3 cell line
Description: (8) 3T3 cell line genetically engineered to express human PDGF-R.
Cells were seeded at 8000 cells/well in DMEM, 10% CS, 2 mM Gln in a 96 well plate. Cells were incubated overnight at 37° C. in 5% CO2.
The negative control wells received serum free DMEM with 0.1% BSA only; the positive control cells received the ligand (PDGF) but no test compound.
The absorbance of the samples were measured at 410 nm (in "dual wavelength" mode with a filter reading at 490 nm, as a reference wavelength) on a Dynatech ELISA plate reader.

[4] = system: FGFr; test: FGF-induced BrdU incorporation assay; type: cell-based; settings: Table 8
[5] = target: T2, PDGFr; test: PDGF-R ELISA; type: cell-based; design: cells (U1242, obtained from Joseph Schlessinger, NYU); endogenous in cells; host or cells: U1242
Description: All cell culture media, glutamine, and fetal bovine serum can be purchased from Gibco Life Technologies (Grand Island, N.Y.) unless otherwise specified. […] All cell lines are routinely subcultured twice a week and are negative for mycoplasma as determined by the Mycotect method (Gibco).
For ELISA assays, cells (U1242, obtained from Joseph Schlessinger, NYU) are grown to 80-90% confluency in growth medium (MEM with 10% FBS, NEAA, 1 mM NaPyr and 2 mM GLN) and seeded in 96-well tissue culture plates in 0.5% serum at 25,000 to 30,000 cells per well. After overnight incubation in 0.5% serum-containing medium, cells are changed to serum-free medium and treated with test compound for 2 hr in a 5% CO2, 37° C. incubator. […] Lysates are incubated with shaking for 1 hour at room temperature. The plates are washed with TBST four times and then incubated with polyclonal anti-phosphotyrosine antibody at room temperature for 30 minutes. Excess anti-phosphotyrosine antibody is removed by rinsing the plate with TBST four times. Goat anti-rabbit IgG antibody is added to the ELISA plate for 30 min at room temperature followed by rinsing with TBST four more times. […] Absorbance at 410 nm with a reference wavelength of 630 nm is recorded about 15 to 30 min after ABTS addition.

[6] = target: EGFr (Homo sapiens, UniProt P00533); test: EGF-induced BrdU incorporation assay; type: cell-based; settings: Table 8
[7] = target: Myc-GyrB-FGFR fusion protein; test: Assay measuring the kinase activity of the FGF receptor (Myc-GyrB-FGFR fusion protein); type: biochemical; settings: Table 5; 7 μM ATP
Description: The following protocol describes the reagents and procedures used to analyze protein tyrosine kinase activity of the Myc-GyrB-FGFR fusion protein.
5. Add 15 μg COS/FGFR cell lysate Myc-GyrB-FGFR sources per well in HNTG for a final volume of 100 μL per well. Incubate while shaking on a micro-liter plate shaker at room temperature for 2 hours.
9. At this point diluted Compounds/Extracts are added to the ELISA plate. Transfer 10 μL of diluted test and control wells from the polypropylene plate wells to the corresponding ELISA plate wells. Incubate while shaking on a micro-liter plate shaker at room temperature for 20 minutes.
10. Add 10 μL of 70 μM ATP diluted in kinase buffer to positive control and test wells (Final ATP concentration is 7 μM/well.) Add 10 μL of 1×kinase buffer to negative control wells. Incubate while shaking on a micro-liter plate shaker at room temperature for 15 min.
22. Read assay on Dynatech MR7000 ELISA Plate Reader.
as §1

[8] = target: T3, lck protein kinase (Homo sapiens, UniProt P06239); test: Biochemical lck assay - ELISA; settings: Table 7; 10 μM ATP, GST-zeta substrate
T3 construct: made in house; host or cells: Schizosaccharomyces pombe strain SP200 (lysate)
Description: This assay is used to determine lck protein kinase activities measuring phosphorylation of GST-.zeta. as the readout.
(§2) b. Yeast transformed with lck. […] S. Pombe strain SP200 (h-s leul.32 ura4 ade210) is grown as described and transformations with pRSP expression plasmids are done by the lithium acetate method (Superti-Furga, supra). Cells are grown in the presence of 1 μM thiamine to induce expression.
2. Add 0.08 mL Kinase Reaction Mixture per well (containing 10 μl of 10×Kinase Buffer and 2 μg GST-.zeta. per well diluted with water).
(§3) 3. Add 10 μL of compound diluted in water containing 10% DMSO and pre-incubate for 15 minutes at room temperature.
4. Start kinase reaction by adding 10 μL/well of 0.1 mM ATP in water (10 μM ATP final).
The IC50 values were measured for one of the compounds of the invention.

[9] = target: T4, src protein kinase (Gallus gallus, UniProt P00523); test: Biochemical src assay - ELISA; settings: Table 6; 5 μM ATP, biotinylated peptide substrate
T4 construct: made in house; host or cells: Schizosaccharomyces pombe (yeast transformed with src, lysate)
Description: This assay is used to determine src protein kinase activity measuring phosphorylation of a biotinylated peptide as the readout.
as §2, with “h.” for “b. Yeast transformed with lck.”, “are” for “with”, “to repress expression from the nmtl promoter or in the absence of thiamine to” for “to”
2. Add 0.08 mL Kinase Reaction Mixture per well (containing 10 μL of 10×Kinase Buffer and 10 μM (final concentration) biotin-[…] per well diluted in water.
as §3
4. Start kinase reaction by adding 10 μL/well of 0.05 mM ATP in water (5 μM ATP final).
as §1

[10] = Table 8, BrdU incorporation, 3.8 nM PDGF, read-out: PDGFr IC50
[11] = Table 4, ligand-stimulated U1242 cells, read-out: PDGF-R IC50

T2 sequence (P09619 33-1106): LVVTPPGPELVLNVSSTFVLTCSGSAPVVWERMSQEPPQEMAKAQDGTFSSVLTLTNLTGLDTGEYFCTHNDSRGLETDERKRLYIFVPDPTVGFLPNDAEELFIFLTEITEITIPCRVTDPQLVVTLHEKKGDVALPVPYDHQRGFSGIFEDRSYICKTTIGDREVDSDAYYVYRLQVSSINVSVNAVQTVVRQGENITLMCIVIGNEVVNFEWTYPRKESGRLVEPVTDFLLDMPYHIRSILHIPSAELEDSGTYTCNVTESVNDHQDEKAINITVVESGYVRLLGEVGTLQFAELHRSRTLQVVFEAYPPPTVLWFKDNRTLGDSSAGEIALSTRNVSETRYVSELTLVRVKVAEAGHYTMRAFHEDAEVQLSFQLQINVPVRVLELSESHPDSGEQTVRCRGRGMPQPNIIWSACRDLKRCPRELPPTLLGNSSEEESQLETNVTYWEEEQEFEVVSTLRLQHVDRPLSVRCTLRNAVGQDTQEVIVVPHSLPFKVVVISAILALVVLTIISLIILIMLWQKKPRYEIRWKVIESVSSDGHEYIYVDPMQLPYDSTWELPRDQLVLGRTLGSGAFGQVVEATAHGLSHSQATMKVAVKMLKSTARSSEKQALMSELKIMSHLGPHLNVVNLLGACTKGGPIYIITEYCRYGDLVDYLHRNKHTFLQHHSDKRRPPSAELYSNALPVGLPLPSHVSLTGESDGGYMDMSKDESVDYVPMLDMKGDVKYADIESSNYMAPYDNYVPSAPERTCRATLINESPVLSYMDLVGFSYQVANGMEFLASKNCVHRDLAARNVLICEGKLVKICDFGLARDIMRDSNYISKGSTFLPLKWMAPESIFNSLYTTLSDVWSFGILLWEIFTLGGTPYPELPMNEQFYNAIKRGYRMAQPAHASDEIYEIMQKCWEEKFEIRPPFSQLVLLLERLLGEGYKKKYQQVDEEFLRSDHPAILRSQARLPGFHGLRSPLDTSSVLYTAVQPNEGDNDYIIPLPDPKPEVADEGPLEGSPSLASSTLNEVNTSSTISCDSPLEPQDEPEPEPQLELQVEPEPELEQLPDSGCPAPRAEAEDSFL
Chain of EGFr (P00533 25-1210): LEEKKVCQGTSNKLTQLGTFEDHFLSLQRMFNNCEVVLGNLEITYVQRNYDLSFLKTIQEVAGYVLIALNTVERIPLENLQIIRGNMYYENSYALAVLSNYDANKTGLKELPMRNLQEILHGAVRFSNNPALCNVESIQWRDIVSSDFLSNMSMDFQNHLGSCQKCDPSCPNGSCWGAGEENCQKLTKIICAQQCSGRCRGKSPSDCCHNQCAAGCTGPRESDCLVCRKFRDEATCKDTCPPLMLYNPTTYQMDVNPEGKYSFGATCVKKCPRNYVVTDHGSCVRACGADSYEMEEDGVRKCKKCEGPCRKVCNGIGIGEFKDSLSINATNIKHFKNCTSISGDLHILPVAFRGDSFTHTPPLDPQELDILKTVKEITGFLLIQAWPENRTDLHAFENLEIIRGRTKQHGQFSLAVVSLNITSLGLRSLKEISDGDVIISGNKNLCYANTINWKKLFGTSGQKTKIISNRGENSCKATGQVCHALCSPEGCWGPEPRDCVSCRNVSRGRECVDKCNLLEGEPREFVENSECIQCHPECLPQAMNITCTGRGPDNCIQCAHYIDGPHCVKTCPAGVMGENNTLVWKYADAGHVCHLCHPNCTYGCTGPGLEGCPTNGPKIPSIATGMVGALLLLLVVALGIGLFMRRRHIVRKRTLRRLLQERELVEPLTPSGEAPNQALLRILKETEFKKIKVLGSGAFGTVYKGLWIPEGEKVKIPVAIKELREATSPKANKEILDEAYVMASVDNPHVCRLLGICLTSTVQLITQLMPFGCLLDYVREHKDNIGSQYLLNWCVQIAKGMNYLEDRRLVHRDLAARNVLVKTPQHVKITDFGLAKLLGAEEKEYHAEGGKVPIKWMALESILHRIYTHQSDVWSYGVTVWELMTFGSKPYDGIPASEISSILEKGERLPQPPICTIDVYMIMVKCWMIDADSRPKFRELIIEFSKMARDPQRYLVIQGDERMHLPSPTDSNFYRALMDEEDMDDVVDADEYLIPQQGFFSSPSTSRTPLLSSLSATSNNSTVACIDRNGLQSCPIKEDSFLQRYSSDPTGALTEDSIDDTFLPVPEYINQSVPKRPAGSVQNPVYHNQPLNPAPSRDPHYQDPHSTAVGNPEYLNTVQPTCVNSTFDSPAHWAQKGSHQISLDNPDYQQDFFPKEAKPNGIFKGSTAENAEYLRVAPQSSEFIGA
T1 sequence (P35918 20-1345): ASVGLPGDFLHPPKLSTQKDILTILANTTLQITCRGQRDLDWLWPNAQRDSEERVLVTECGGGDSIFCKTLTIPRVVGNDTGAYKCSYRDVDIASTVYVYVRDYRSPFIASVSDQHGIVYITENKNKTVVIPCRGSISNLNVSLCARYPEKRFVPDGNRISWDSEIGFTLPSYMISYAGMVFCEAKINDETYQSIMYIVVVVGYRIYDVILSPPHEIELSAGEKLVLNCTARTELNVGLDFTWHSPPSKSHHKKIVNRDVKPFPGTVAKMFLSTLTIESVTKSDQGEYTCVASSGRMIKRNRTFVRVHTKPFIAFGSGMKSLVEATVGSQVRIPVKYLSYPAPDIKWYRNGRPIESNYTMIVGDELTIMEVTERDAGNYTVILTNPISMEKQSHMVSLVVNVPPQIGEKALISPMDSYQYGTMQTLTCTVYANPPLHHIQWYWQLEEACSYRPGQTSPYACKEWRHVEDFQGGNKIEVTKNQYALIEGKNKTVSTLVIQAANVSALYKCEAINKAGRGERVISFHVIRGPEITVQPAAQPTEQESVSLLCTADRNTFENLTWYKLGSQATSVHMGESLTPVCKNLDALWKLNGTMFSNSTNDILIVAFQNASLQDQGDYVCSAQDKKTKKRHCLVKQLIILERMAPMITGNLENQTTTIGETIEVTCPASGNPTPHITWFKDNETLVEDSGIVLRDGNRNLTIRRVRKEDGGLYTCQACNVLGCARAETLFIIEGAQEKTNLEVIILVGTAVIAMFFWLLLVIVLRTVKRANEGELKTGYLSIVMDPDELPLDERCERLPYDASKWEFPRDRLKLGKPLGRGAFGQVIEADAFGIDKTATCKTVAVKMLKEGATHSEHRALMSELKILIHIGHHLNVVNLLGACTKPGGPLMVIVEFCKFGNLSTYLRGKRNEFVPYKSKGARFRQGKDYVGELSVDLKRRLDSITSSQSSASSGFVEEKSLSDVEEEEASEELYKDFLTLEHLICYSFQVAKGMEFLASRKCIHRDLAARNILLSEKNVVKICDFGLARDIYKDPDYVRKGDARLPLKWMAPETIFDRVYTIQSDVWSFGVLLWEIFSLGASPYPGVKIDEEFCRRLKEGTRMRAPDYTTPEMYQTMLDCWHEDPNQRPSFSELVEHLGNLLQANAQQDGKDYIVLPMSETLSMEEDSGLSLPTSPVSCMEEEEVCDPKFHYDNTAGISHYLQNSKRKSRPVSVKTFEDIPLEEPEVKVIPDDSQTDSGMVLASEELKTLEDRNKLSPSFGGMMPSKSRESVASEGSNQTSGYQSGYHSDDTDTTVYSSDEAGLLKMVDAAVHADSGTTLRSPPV
T3 sequence (P06239 whole entry): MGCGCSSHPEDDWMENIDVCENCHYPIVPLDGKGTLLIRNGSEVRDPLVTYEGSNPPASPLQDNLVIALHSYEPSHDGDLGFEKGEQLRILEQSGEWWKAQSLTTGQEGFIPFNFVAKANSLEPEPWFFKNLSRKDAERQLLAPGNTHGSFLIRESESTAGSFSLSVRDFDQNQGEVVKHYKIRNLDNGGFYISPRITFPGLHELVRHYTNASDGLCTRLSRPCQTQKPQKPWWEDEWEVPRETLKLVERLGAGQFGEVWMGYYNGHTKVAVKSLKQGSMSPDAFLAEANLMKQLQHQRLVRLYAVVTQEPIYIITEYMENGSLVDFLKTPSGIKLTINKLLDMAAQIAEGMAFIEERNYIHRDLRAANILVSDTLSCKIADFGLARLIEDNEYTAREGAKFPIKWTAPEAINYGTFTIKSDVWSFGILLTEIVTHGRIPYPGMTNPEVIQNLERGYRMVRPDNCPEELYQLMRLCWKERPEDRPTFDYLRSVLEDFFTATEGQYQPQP

Row | Structure (SMILES) | IC50 [1] | IC50 [2] | IC50 [3, 10] | IC50 [4] | IC50 [5, 11] | IC50 [6] | IC50 [7] | IC50 [3] | IC50 [5] | IC50 [8] | IC50 [9]
1 | COc1cccc(-c2ccc3c(c2)NC(=O)C3=Cc2cc3c([nH]2)CCCC3)c1 [6-(3-methoxyphenyl)-3-(4,5,6,7-tetrahydro-1H-indol-2-ylmethylene)-1,3-dihydro-indol-2-one] | > 20 µM | > 50 µM | > 50 µM | > 50 µM | > 100 µM | 31.8 µM |  |  |  |  | 
2 | CCOc1cccc(-c2ccc3c(c2)NC(=O)C3=Cc2cc3c([nH]2)CCCC3)c1 [6-(3-ethoxyphenyl)-3-(4,5,6,7-tetrahydro-1H-indol-2-ylmethylene)-1,3-dihydro-indol-2-one] |  | > 25 µM | > 50 µM | > 50 µM | > 100 µM | > 50 µM | > 20 µM |  |  |  | 
3 | Cc1cc(Br)c2c(c1)C(=Cc1cc3c([nH]1)CCCC3)C(=O)N2 [7-bromo-5-methyl-3-(4,5,6,7-tetrahydro-1H-indol-2-ylmethylene)-1,3-dihydro-indol-2-one] | > 2.5 µM |  |  |  | 5.56 µM |  |  |  |  |  | 
4 | COc1ccc(-c2ccc3c(c2)NC(=O)C3=Cc2cc3c([nH]2)CCCC3)cc1 [6-(4-methoxyphenyl)-3-(4,5,6,7-tetrahydro-1H-indol-2-ylmethylene)-1,3-dihydro-indol-2-one] |  | > 12.5 µM |  | > 50 µM |  | > 50 µM | > 100 µM | > 50 µM | 94 µM |  | 
5 | O=C1Nc2cc(Br)ccc2C1=Cc1cc2c([nH]1)CCCC2 [6-bromo-3-(4,5,6,7-tetrahydro-1H-indol-2-ylmethylene)-1,3-dihydro-indol-2-one] |  |  |  |  | > 100 µM |  | > 20 µM |  |  |  | 
6 | O=C1Nc2cc(-c3ccccc3)ccc2C1=Cc1cc2c([nH]1)CCCC2 [6-phenyl-3-(4,5,6,7-tetrahydro-1H-indol-2-ylmethylene)-1,3-dihydro-indol-2-one] |  | > 12.5 µM | > 50 µM | > 50 µM | 70.6 µM | > 50 µM | > 100 µM |  |  |  | 
7 | COc1ccccc1-c1ccc2c(c1)NC(=O)C2=Cc1[nH]c2c(c1C)CCCC2 [6-(2-methoxyphenyl)-3-(3-methyl-4,5,6,7-tetrahydro-1H-indol-2-ylmethylene)-1,3-dihydro-indol-2-one] |  | > 12.5 µM | > 50 µM | > 50 µM | 95.7 µM | > 50 µM | > 100 µM |  |  |  | 
8 | O=C1Nc2cc(Cl)ccc2C1=Cc1cc2c([nH]1)CCCC2 [6-chloro-3-(4,5,6,7-tetrahydro-1H-indol-2-ylmethylene)-1,3-dihydro-indol-2-one] |  |  |  |  | > 100 µM |  | > 20 µM |  |  |  | 
9 | COc1ccc2c(c1)NC(=O)C2=Cc1cc2c([nH]1)CCCC2 [6-methoxy-3-(4,5,6,7-tetrahydro-1H-indol-2-ylmethylene)-1,3-dihydro-indol-2-one] |  |  |  | > 50 µM |  | > 50 µM |  |  |  |  | 
10 | COc1ccc(-c2ccc3c(c2)NC(=O)C3=Cc2[nH]c3c(c2C)CCCC3)cc1 [6-(4-methoxyphenyl)-3-(3-methyl-4,5,6,7-tetrahydro-1H-indol-2-ylmethylene)-1,3-dihydro-indol-2-one] |  | > 50 µM | > 50 µM | > 50 µM | > 100 µM | > 50 µM | > 100 µM |  |  |  | 
11 | CC(=O)c1ccc2c(c1)C(=Cc1cc3c([nH]1)CCCC3)C(=O)N2 [5-acetyl-3-(4,5,6,7-tetrahydro-1H-indol-2-ylmethylene)-1,3-dihydro-indol-2-one] |  | 28.8 µM | > 0.07 µM | > 50 µM | > 100 µM | 36.5 µM | > 20 µM |  |  | > 100 µM | 17.8 µM
12 | COc1cccc(-c2ccc3c(c2)NC(=O)C3=Cc2[nH]c3c(c2C)CCCC3)c1 [6-(3-methoxyphenyl)-3-(3-methyl-4,5,6,7-tetrahydro-1H-indol-2-ylmethylene)-1,3-dihydro-indol-2-one] | > 5 µM |  |  |  | 5.83 µM |  | > 20 µM |  |  |  | 
13 | Cc1c(C=C2C(=O)Nc3cc(Br)ccc32)[nH]c2c1CCCC2 [6-bromo-3-(3-methyl-4,5,6,7-tetrahydro-1H-indol-2-ylmethylene)-1,3-dihydro-indol-2-one] | 2.19 µM |  |  |  | 40 µM |  | > 20 µM |  |  |  | 
14 | COc1ccccc1-c1ccc2c(c1)NC(=O)C2=Cc1cc2c([nH]1)CCCC2 [6-(2-methoxyphenyl)-3-(4,5,6,7-tetrahydro-1H-indol-2-ylmethylene)-1,3-dihydro-indol-2-one] |  | 14.6 µM |  | 43.6 µM |  | 34.1 µM | > 100 µM | 1.06 µM | 12.3 µM |  | 
15 | O=C1Nc2cc(O)ccc2C1=Cc1cc2c([nH]1)CCCC2 [6-hydroxy-3-(4,5,6,7-tetrahydro-1H-indol-2-ylmethylene)-1,3-dihydro-indol-2-one] | 17.1 µM |  | 0.51 µM | 6.21 µM | 47.2 µM | 12.6 µM |  |  |  |  | 21 µM
